How the values were obtained:
F508delCFTR [1] = biological target: T1, F508delCFTR (Homo sapiens, UniProt P13569, DEL508-508); experiment: Cell Surface Expression-Horse Radish Peroxidase (CSE-HRP) assay, test compound without co-corrector; assay type: cell-based; details: for EC50: CSE-HRP assay, test compound without co-corrector; for Emax: maximum at any tested concentration, normalized to on-plate positive control, without co-corrector;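 for Emax: percent of on-plate 2 µM positive control corrector response over DMSO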
T1 construct: expressed in transfected cells; host or cells: CFBE41o- human lung-derived epithelial cells (CFBE41o-F508delCFTR-HRP), doxycycline-inducible
T1 sequence (P13569 with tags, fused parts or gaps DEL508-508): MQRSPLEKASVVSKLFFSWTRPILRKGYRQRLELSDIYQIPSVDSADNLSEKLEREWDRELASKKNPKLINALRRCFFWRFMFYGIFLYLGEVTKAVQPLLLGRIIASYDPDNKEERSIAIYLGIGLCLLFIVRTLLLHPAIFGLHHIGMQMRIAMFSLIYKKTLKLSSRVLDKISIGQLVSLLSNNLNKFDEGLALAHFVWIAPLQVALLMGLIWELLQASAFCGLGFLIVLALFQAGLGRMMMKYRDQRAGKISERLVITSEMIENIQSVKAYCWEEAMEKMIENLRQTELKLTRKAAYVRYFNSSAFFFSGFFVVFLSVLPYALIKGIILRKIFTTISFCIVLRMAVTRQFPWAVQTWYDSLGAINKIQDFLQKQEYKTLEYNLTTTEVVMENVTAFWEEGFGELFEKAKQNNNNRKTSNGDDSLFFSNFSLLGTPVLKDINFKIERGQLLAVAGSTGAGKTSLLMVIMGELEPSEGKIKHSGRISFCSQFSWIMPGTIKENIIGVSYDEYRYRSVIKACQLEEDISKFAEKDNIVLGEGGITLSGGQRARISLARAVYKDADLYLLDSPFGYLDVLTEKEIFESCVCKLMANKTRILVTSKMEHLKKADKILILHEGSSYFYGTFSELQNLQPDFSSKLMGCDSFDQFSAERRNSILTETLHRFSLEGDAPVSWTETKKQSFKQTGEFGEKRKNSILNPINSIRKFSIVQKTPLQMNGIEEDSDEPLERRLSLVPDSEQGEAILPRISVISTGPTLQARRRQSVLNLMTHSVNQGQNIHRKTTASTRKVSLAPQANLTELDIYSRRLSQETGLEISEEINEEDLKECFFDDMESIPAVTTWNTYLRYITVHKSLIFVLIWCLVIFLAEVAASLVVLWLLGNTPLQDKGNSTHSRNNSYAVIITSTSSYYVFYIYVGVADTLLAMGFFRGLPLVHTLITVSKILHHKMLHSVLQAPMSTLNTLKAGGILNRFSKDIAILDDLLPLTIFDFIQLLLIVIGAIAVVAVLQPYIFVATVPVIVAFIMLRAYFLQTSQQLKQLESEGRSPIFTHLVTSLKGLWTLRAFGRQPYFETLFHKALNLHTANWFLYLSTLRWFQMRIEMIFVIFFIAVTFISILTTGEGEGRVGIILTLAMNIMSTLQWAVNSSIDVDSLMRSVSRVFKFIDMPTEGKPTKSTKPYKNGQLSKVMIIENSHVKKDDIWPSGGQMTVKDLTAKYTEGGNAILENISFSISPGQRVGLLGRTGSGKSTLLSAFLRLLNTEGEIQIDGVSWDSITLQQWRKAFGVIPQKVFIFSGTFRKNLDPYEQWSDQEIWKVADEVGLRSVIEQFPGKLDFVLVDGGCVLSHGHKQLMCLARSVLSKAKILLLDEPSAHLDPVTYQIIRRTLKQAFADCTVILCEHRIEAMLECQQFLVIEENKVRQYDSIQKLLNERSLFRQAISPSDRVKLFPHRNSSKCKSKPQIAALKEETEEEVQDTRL
Method in brief: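 CFBE41o- cells expressing F508delCFTR with HRP in the fourth exofacial loop, induced with 0.5 μg/mL doxycycline for 72 h at 37° C, then exposed to compound alone for 18-24 h at 33° C, 8-point 3-fold series from 20 μM. Surface HRP read by luminol luminescence, normalized to positive corrector control versus DMSO; EC50 from variable-slope sigmoidal fit of three replicate plates.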

F508delCFTR [2] = biological target: T1, F508delCFTR; experiment: Cell Surface Expression-Horse Radish Peroxidase (CSE-HRP) assay, test compound with co-corrector; assay type: cell-based; details: for EC50: CSE-HRP assay, test compound with 2 μM co-corrector; for Maximum % activity (with co-corrector): maximum at any tested concentration, normalized to on-plate positive control, with 2 μM co-corrector;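 for Maximum % activity (with co-corrector): percent of 2 µM positive control corrector over DMSO; co-corrector is that same compound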
Method in brief: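 CFBE41o- cells expressing F508delCFTR with HRP in the fourth exofacial loop, induced with 0.5 μg/mL doxycycline for 72 h, then treated 18-24 h at 33° C. with compound (8 points, top 20 μM, 3-fold) plus 2 μM co-corrector. Surface HRP read by luminol luminescence; activity normalised to positive control, EC50 from variable-slope sigmoidal fit.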

Row | Structure (SMILES) | EC50 (F508delCFTR [1]) [µM] | Emax (F508delCFTR [1]) [%] | EC50 (F508delCFTR [2]) [µM] | Maximum % activity (with co-corrector) (F508delCFTR [2])
1 | COc1ccc(-c2cccc(OC(F)(F)F)c2)c2c1CCCC2C(=O)NS(=O)(=O)c1cccc2ccccc12 (centres unmarked) [III-148] | < 3 | ≥ 150 | < 3 | +++ (≥350)
2 | CCC1(C(=O)NS(=O)(=O)c2cccc(Cl)c2C(=O)OC)CCc2c(Cl)cccc21 (centres unmarked) [III-149] | ≥ 10 | < 50 | < 3 | + (<150)
3 | COc1ccc(-c2ccc(C(F)(F)F)cc2)c2c1CCCC2C(=O)NS(=O)(=O)c1cccc2ccccc12 (centres unmarked) [III-154] | < 3 | ≥ 150 | < 3 | +++ (≥350)
4 | CCC1(C(=O)NS(=O)(=O)c2cccc(Cl)c2C)CCc2c(Cl)cccc21 (centres unmarked) [III-156] | 3 to 10 | 50 to 150 | < 3 | ++ (≥150 and <350)
5 | COc1ccc(Br)c2c1C(C(=O)NS(=O)(=O)c1cccnc1N)CC2 (centres unmarked) [III-159] | 3 to 10 | ≥ 150 | 3 to 10 | +++ (≥350)
6 | COc1ccc(Br)c2c1C(C(=O)NS(=O)(=O)c1cccc(N)n1)CC2 (centres unmarked) [III-160] | 3 to 10 | 50 to 150 | 3 to 10 | +++ (≥350)
7 | CCOc1ccc(S(=O)(=O)NC(=O)C2CCc3c(Br)ccc(OC)c32)c2ccccc12 (centres unmarked) [III-161] | 3 to 10 | < 50 | 3 to 10 | ++ (≥150 and <350)
8 | COc1ccc(Br)c2c1C(C(=O)NS(=O)(=O)c1ccc(OC)c3ccccc13)CC2 (centres unmarked) [III-162] | 3 to 10 | 50 to 150 | 3 to 10 | +++ (≥350)
9 | COc1ccc(Br)c2c1C(C(=O)NS(=O)(=O)c1cccn3cnnc13)CC2 (centres unmarked) [III-163] | ≥ 10 | < 50 | 3 to 10 | ++ (≥150 and <350)
10 | COc1ccc(-c2cncnc2)c2c1C(C(=O)NS(=O)(=O)c1cccc3ccccc13)CCC2 (centres unmarked) [III-164] | < 3 | 50 to 150 | < 3 | +++ (≥350)
11 | COc1ccc(-c2ccc(C3CC3)nc2)c2c1C(C(=O)NS(=O)(=O)c1cccc3ccccc13)CCC2 (centres unmarked) [III-165] | 3 to 10 | 50 to 150 | < 3 | ++ (≥150 and <350)
12 | COc1ccc(-c2ccncc2)c2c1C(C(=O)NS(=O)(=O)c1cccc3ccccc13)CCC2 (centres unmarked) [III-166] | < 3 | 50 to 150 | < 3 | ++ (≥150 and <350)
13 | COc1ccc(-c2cncnc2)c2c1C(C(=O)NS(=O)(=O)c1cccc3ncccc13)CC2 (centres unmarked) [III-168] | 3 to 10 | 50 to 150 | 3 to 10 | +++ (≥350)
14 | CCC1(C(=O)NS(=O)(=O)c2cccc(N3CCOCC3)c2C)CCc2c(Cl)cccc21 (centres unmarked) [III-172] | 3 to 10 | < 50 | < 3 | ++ (≥150 and <350)
15 | CCC1(C(=O)NS(=O)(=O)c2cccc(N(C)CCOC)c2C)CCc2c(Cl)cccc21 (centres unmarked) [III-173] | 3 to 10 | 50 to 150 | 3 to 10 | +++ (≥350)
16 | COc1ccc(N2CCCC2)c2c1CCCC2C(=O)NS(=O)(=O)c1cccc2ccccc12 (centres unmarked) [III-174] | ≥ 10 | < 50 | ≥ 10 | + (<150)
17 | COc1ccc2c(c1OC)CC2C(=O)NS(=O)(=O)c1ccccc1C (centres unmarked) [III-175] | ≥ 10 | < 50 | ≥ 10 | + (<150)
18 | COc1ccc2c(c1OC)CC2C(=O)NS(=O)(=O)c1cccc2ccccc12 (centres unmarked) [III-177] | ≥ 10 | < 50 | 3 to 10 | ++ (≥150 and <350)
19 | COc1ccc(Br)c2c1C(C(=O)NS(=O)(=O)c1cccc3c(C(=O)O)cccc13)CC2 (centres unmarked) [III-181] | ≥ 10 | < 50 | 3 to 10 | ++ (≥150 and <350)
20 | COc1ccc(C(=O)O)c2c1C(C(=O)NS(=O)(=O)c1cccc3ccccc13)CC2 (centres unmarked) [III-183] | ≥ 10 | < 50 | 3 to 10 | ++ (≥150 and <350)
21 | COC(=O)c1ccc(OC)c2c1CCC2C(=O)NS(=O)(=O)c1cccc2ccccc12 (centres unmarked) [III-184] |  | 50 to 150 |  | ++ (≥150 and <350)
22 | COc1ccc(CO)c2c1C(C(=O)NS(=O)(=O)c1cccc3ccccc13)CC2 (centres unmarked) [III-185] | 3 to 10 | < 50 | 3 to 10 | ++ (≥150 and <350)
23 | CNC(=O)c1ccc(OC)c2c1CCC2C(=O)NS(=O)(=O)c1cccc2ccccc12 (centres unmarked) [III-186] | ≥ 10 | < 50 | ≥ 10 | + (<150)

Continued, values first:

Row | EC50 (F508delCFTR [1]) [µM] | Emax (F508delCFTR [1]) [%] | EC50 (F508delCFTR [2]) [µM] | Maximum % activity (with co-corrector) (F508delCFTR [2]) | Structure (SMILES)
24 | 3 to 10 | < 50 | 3 to 10 | ++ (≥150 and <350) | O=C(NS(=O)(=O)c1cccc2ccccc12)C1CCc2c(Br)ccc(O)c21 (centres unmarked) [III-152]
25 | ≥ 10 | < 50 | ≥ 10 | + (<150) | COc1ccc(N2CCOCC2)c2c1CCCC2C(=O)NS(=O)(=O)c1cccc2ccccc12 (centres unmarked) [III-153]
26 | 3 to 10 | 50 to 150 | 3 to 10 | ++ (≥150 and <350) | COc1ccc(Br)c2c1C(C(=O)NS(=O)(=O)c1cccnc1OC)CC2 (centres unmarked) [III-158]
27 | 3 to 10 | < 50 | < 3 | ++ (≥150 and <350) | COc1ccc(-c2ccc(C)nc2)c2c1C(C(=O)NS(=O)(=O)c1cccc3ccccc13)CCC2 (centres unmarked) [III-167]
28 | 3 to 10 | ≥ 150 | < 3 | +++ (≥350) | COc1ccc(C2=CCOCC2)c2c1C(C(=O)NS(=O)(=O)c1cccc3ncccc13)CC2 (centres unmarked) [III-169]
29 | < 3 | 50 to 150 | < 3 | +++ (≥350) | COc1ccc(-c2ccc(C)cc2)c2c1C(C(=O)NS(=O)(=O)c1cccc3ccccc13)CCC2 (centres unmarked) [III-170]
30 | 3 to 10 | 50 to 150 | 3 to 10 | +++ (≥350) | COc1ccc(-c2ccc(C(F)(F)F)nc2)c2c1C(C(=O)NS(=O)(=O)c1cccc3ccccc13)CCC2 (centres unmarked) [III-171]
31 | ≥ 10 | < 50 | ≥ 10 | + (<150) | Cc1ccccc1S(=O)(=O)NC(=O)C1Cc2ccccc21 (centres unmarked) [III-176]
32 | 3 to 10 | < 50 | 3 to 10 | ++ (≥150 and <350) | COc1ccc2c(n1)CCC2C(=O)NS(=O)(=O)c1cccc2ccccc12 (centres unmarked) [III-178]
33 | ≥ 10 | < 50 | ≥ 10 | + (<150) | CCC1(C(=O)NS(=O)(=O)c2cccc(Cl)c2C(=O)O)CCc2c(Cl)cccc21 (centres unmarked) [III-179]
34 | < 3 | 50 to 150 | < 3 | ++ (≥150 and <350) | COc1cccc2c1C(C(=O)NS(=O)(=O)c1cccc3ccccc13)CC2 (centres unmarked) [III-182]

From patent US20180244611A1, “Modulators of the Cystic Fibrosis Transmembrane Conductance Regulator Protein and Methods of Use” (AbbVie S.à.r.l., priority 2017, published 2018)
